In the SangsterLogP compilation one finds logP and logD data, which are given here for 55 compounds.

Test in one data set: not given
Details: not given
Broadly, the logP is the decadic logarithm of the partition coefficient of the neutral form, usually between octanol and water. Higher therefore signals higher lipophilicity. Regarding `CN(C)c1cccc([N+](=O)[O-])c1`, the logP is 2.16.

The compound `COc1cccc([N+](=O)[O-])c1` displayed a logP of 2.09.

The compound `O=[N+]([O-])c1ccc(Cl)cc1` showed a logP of 2.45.

As to `O=[N+]([O-])c1cccc(Cl)c1`, the logP was found to be 2.59.

Regarding `O=[N+]([O-])c1ccccc1Br`, the logP is 2.5. The logP values of the last two compounds are within 0.2 log units of each other.

Test in the next data set: not given
Details: not given
The source holds these as a separate data set.
In turn, `CCN(CC)CC` showed a logP of 1.36.

Compound `Nc1ccc(-c2ccc(N)cc2)cc1` showed a logP of 1.53.

On to `CC(C(=O)O)c1ccc(N2CC=CC2)c(Cl)c1` (stereo not given), for which the log partition coefficient (logP) came to 3.58.

In the case of `CN(C)Cc1ccccc1`, the logP turned out to be 1.91.

`CCn1ccc(NS(=O)(=O)c2ccc(N)cc2)nc1=O` showed a logP of -0.2.

Test in a further data set: not given
Details: not given
This is another data set of the same source.
Take `CC(C)(C)c1ccncc1`: the logP stood at 2.42.

Regarding `O=Cc1cccnc1`, the logP amounted to 0.29.

Consider `Brc1cccnc1`, for which the logP was found to be 1.5.

As for `Brc1ccncc1`, the logP turned out to be 1.49.

For `Nc1cccnc1`, the log partition coefficient (logP) is 0.05.

The nature of a further data set: method code SF-AS, from DOI: 10.1007/bf01648987.
Details: not given
`Oc1ccc(Br)cc1Br` yielded a logP of 3.48.

As to `CCOC(=O)/C=C/c1ccccc1`, the logP came out at 2.91.

On to `CN(C)c1ccccc1`, for which the logP came to 2.29.

On to `Cc1cc(Cl)ccc1O`, for which the logP worked out at 2.78.

As for `CC(=O)NC1CC1c1ccccc1` (stereo not given), the logP was found to be 1.43.

A further data set in a line: method code SF-AS, from DOI: 10.1007/bf01964075. The following applies: pH 2.1.
A word on the logD: it is the decadic logarithm of the distribution of all forms, ionised or not, between an organic phase and buffer at a given pH. On to `CC[C@H](C)[C@H](NC(C)=O)C(=O)NC`, for which the logD was found to be 0.14.

Turning to `Oc1cccc(O)c1`, the logD is 0.83.

For `CNC(=O)C1CCCN1C(C)=O` (stereo not given), the logD is -1.19.

The compound `CNC(=O)[C@H](Cc1ccc(O)cc1)NC(C)=O` returned a logD of -0.32.

`CNC(=O)[C@@H](NC(C)=O)C(C)C` came in with a log distribution coefficient (logD) of -0.35.

A short description of another data set: method code SF, from DOI: 10.1016/s0045-6535(97)00338-x.
Details: not given
As for `CC(=O)Oc1ccc(F)cc1`, the logP is 1.41.

Compound `O=[N+]([O-])c1cc(F)ccc1O` returned a logP of 1.88.

For the compound `CC(=O)Nc1ccc(F)cc1F`, the logP was determined as 1.5.

Consider `O=S(=O)(CBr)c1ccc(F)cc1`, for which the logP came out at 1.74.

Staying with this data set, now noted: pH 2.0.
Compound `O=C(O)COc1ccc(F)cc1` returned a log distribution coefficient (logD) of 1.57.

Another data set can be described thus: method code SF-AS, from DOI: 10.1016/s0045-6535(98)00368-3.
Details: not given
Take `COC(=O)c1ccccc1S(N)(=O)=O`: the logP came out at 0.01.

Turning to `COC(=O)c1ccccc1CS(N)(=O)=O`, the logP turned out to be 0.37.

The compound `NS(=O)(=O)c1ccccc1Cl` came in with a logP of 0.79.

Staying with this data set, now noted: pH 2.0.
The compound `COc1cc(OC)nc(NC(=O)NS(=O)(=O)c2ccccc2Cl)n1` displayed a logD of 1.95.

As to `COC(=O)c1ccccc1S(=O)(=O)NC(=O)Nc1nc(OC)cc(OC)n1`, the logD stood at 1.78. The logD values of the last two compounds are within 0.2 log units of each other.

A further data set is described as follows: method code SF-HPLC, from DOI: 10.1002/jps.10112, PMID: 12115830. Conditions: pH 7.4.
On to `c1ccc(CSSc2ncc[nH]2)cc1`, for which the logD was found to be 3.05.

Turning to `CC(C)(C)SSc1ncc[nH]1`, the logD was found to be 2.56.

In turn, `CC(O)C(C)SSc1ncc[nH]1` (stereo not given) gave a logD of 1.39.

`CCSSc1ncc[nH]1` gave a logD of 2.13.

In turn, `CCC(C)SSc1ncc[nH]1` (stereo not given) returned a logD of 2.76.

Another data set in a line: method code SF-AS, from DOI: 10.1007/s001289900104, PMID: 8661852.
Details: not given
Consider `[N-]=[N+]=Nc1nc(N=[N+]=[N-])nc(Nc2ccccc2)n1`, for which the logP was 3.88.

As to `CN(c1ccccc1)c1nc(Cl)nc(Cl)n1`, the logP is 3.07.

For the compound `Clc1ncc(-c2ncncn2)c(Cl)n1`, the logP turned out to be 1.32.

Regarding `O=[N+]([O-])c1c(O)nc(-c2ncncn2)nc1O`, the log partition coefficient (logP) came out at 2.02.

In turn, `Clc1nc(Cl)nc(Nc2ccccc2)n1` came in with a logP of 3.03.

The next data set in a line: method code SF, from DOI: 10.1016/0165-1218(78)90089-7, PMID: 362190.
Details: not given
On to `C=CCOCC(O)Cn1ccnc1[N+](=O)[O-]` (stereo not given), for which the logP was 0.3.

On to `Cc1nc([N+](=O)[O-])cn1CCO`, for which the logP is -0.59.

Take `CCN(CC)CCCNC(=O)C(=O)NN=Cc1ccc([N+](=O)[O-])o1`: the logP is -1.12.

In turn, `Cn1cnc([N+](=O)[O-])c1Cl` showed a logP of 0.3.

As for `NC(=O)/C(=C\c1ccc([N+](=O)[O-])o1)c1ccco1`, the logP is 0.15. This logP and that of the compound before are within 0.2 log units of each other.

Another data set is described as follows: method code SF, from Huang, Q.; Wang, L.; Han, S.; Wang, G.; Gao, H. (1993). Quantitative relation between molecular structures and the hydrophobic parameters of halogenated arenes. Chemical Journal of Chinese ….
Details: not given
With `Brc1cccc(Br)c1Br`, the logP came out at 4.98.

`Clc1ccccc1Br`: the logP came to 3.83.

With `Clc1cccc(Br)c1`, the logP worked out at 3.83.

`Brc1ccc(Br)c(Br)c1` showed a log partition coefficient (logP) of 4.98.

With `Brc1cc(Br)cc(Br)c1`, the logP stood at 4.98.
